The values that follow come from patent publication US11414454B2, “Compositions, methods, and systems for affinity-based protein identification and purification” (Auctus Biologies, Inc., priority 2017, dated 2022).

Where two headings read alike, the source gives them in different places. No end group written: not given here.

Experiment [1] has as its target RPtag (large). As to the kind of experiment: Fluorescence anisotropy Kd of rhodamine labeled RPtag (small) peptides for RPtag (large). Type of experiment: binding, Thermoanaerobacter tengcongensis. The method, boiled down:
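N-terminally rhodamine-labeled RPtag small (50 nM or 1 nM) titrated with RPtag large in 50 mM Tris pH 8.0 with 0.005% Tween 20, 5 min to 1 h at room temperature; BSA served as non-specific binding control. Kd from fitting fluorescence anisotropy to a quadratic binding equation accounting for labeled peptide concentration.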
(In general: Polarisation of emitted light reports the rotation of a fluorescent probe.)

Experiment [2] relates to RPtag (large). As to the kind of experiment: Association/dissociation kinetics of RPtag (small) peptides with RPtag (large) by fluorescence anisotropy. The format is binding, Thermoanaerobacter tengcongensis. To be noted: for koff: LS dissociation, unlabeled competitor peptide. The method, boiled down: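 Rhodamine-labeled RPtag small incubated with unlabeled RPtag large; binding followed by fluorescence anisotropy and converted to complex concentration. For dissociation, 1000 nM RPtag large complex chased with 0.1 mM unlabeled native or Nd2,P5A,E18A peptide; koff from initial rates or single-exponential fits, kon derived from koff and Kd.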

For another experiment, the system named is RPtag(large). The experiment can be described thus: pH profile of Kd by fluorescence anisotropy. The format is binding, Thermoanaerobacter tengcongensis. Particulars: buffers pH 1.5 to 13. As to the method: The Kds of Nd8,Cd4 for RPtag(large) was measured in the presence of buffers of different pHs ranging from 1.5 to 13.
For these experiments, Kds were measured by fluorescence anisotropy as described above in the following buffers, all at 100 mM with 0.005% Tween 20: glycine pH 1.5, glycine pH 2.0, glycine pH 3.0, acetate pH 4.5, 2-(N-morpholino)ethanesulfonic acid pH 6.0, tris pH 7.0, tris pH 7.5, tris pH 8.0, tris pH 8.5, borate pH 10.0, phosphate pH 11.5, phosphate pH 13.0.

Experiment [3] concerns immobilized RPtag(large) column. As to the kind of experiment: Native elution from immobilized RPtag(large) column (3 M NaCl binding, 3 M imidazole elution). On the set-up: species or system Thermoanaerobacter tengcongensis. To be noted: bound in 100 mM Tris pH 8.0, 3 M NaCl, 0.005% Tween20. The text has this:
Because of the observed stabilizing character of NaCl and destabilizing character of imidazole on Nd8Cd4 binding, these reagents, among others, were incorporated into a novel buffering system for use with the disclosed proteins, peptides, systems, and methods. In particular, the effect of this novel buffer on binding of RPtag (small) Nd8Cd4 to an immobilized RPtag(large) column was studied. These experiments included eluting both (1) rhodamine labeled peptide and (2) N-terminally RPtag(small) Nd8Cd4 tagged with tagRFP from a column under native conditions. Generally, native conditions is taken to mean at or near biological conditions under which many proteins are folded, e.g. pH 4-9 at moderate temperature (4° C.-30° C.) in the absence of denaturants (e.g. guanidine hydrochloride, urea, SDS). This is in contrast to denaturing conditions, which generally rely on extreme pH (e.g. ≤2) denaturants, or high temperature to unfold proteins.
Briefly, columns, as described above, were first equilibrated with 10 mL 100 mM Tris pH 8.0, 3 M NaCl, 0.005% Tween20. Next, 1 mL of 10 uM rhodamine-tagged Nd8Cd4 or tagRFP containing an N-terminal RPtag (small) Nd8Cd4 tag was applied in the same buffer. The column was then washed with 10 mL of the same buffer. Finally, bound target molecules were eluted with 10 mL of 100 mM Tris pH 8.0, 3 M imidazole, 0.005% Tween20.

The mark [4] stands for this setting: N-terminal rhodamine tagged peptide, unlabeled RPtag (large), 50 mM Tris pH 8.0, 0.005% Tween 20, mean ± SE.

Consider “KIANFIPAELKLITKANVQ [Nd2, p5a, e18a, KIANFIPAELKLITKANVQ]”, for which the Kd on RPtag (large) [1] is about 0.047 nM; at RPtag (large) [1] (setting [4]), 0.047 ± 0.018 nM. Also, the “koff” value in the experiment with RPtag (large) [2] came out at 0.000217 ± 1.7e-05 s⁻¹. Moreover, the “kf” value in the experiment with RPtag (large) [2] (S to S* forward rate constant) was 0.051 ± 0.001 min⁻¹. For the same sequence, the “kr” value with RPtag (large) [2] (S* to S reverse rate constant, calculated from Keq and kf) was 0.19 ± 0.02 min⁻¹. Besides, the “kon (M^−1 min^−1 ) (×10^7)” value with RPtag (large) [2] (S*-LS transition, calculated from measured koff and Kd) is 28 ± 2 ×10^7 M^−1 min^−1. Besides, the “pH of relative maximum affinity” value in the experiment on RPtag(large) is about 8 pH. Further, the “elution behaviour with 100 mM Tris pH 8.0, 3 M imidazole” value in experiment [3] was “diffuse band”.
In the case of PAELKLITK [Nd8, Cd4, PAELKLITK], the Kd on RPtag (large) [1] (setting [4]) is 14 ± 1 nM; at RPtag (large) [1] (N-terminal rhodamine tagged peptide, unlabeled RPtag (large), 50 mM Tris pH 8.0, 0.005% Tween 20, mean ± SE, listed as Nd8Cd4), about 14 nM. Further, the off-rate (koff) in the experiment on RPtag (large) [2] is over 0.033 s⁻¹. Moreover, in the experiment with RPtag (large) [2] (instrument dead time ~1 min), the binding/unbinding kinetics result was “completed within the dead time”. Moreover, the “pH of relative maximum affinity” value in the experiment on RPtag(large) was about 8 pH. Further, in experiment [3], the “elution behaviour with 100 mM Tris pH 8.0, 3 M imidazole” value is “eluted as a tight band”.

In general, Kd refers to the constant that tells how readily two partners part at equilibrium. One may read the koff as the rate constant with which the complex falls apart.
